Test system: NOMO1
Experiment: cell viability relative to DMSO control; higher = less cytotoxic
Conditions: 48 h
Procedure, shortened: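 Three leukemia lines were tested: NOMO1 and SEM at 500 cells/well and P12-Ichikawa at 1000 cells/well. Each was adapted for at least four passages in each medium and seeded in 5 μl in 1536-well plates, and library compounds in DMSO were pin-dosed from 47 μM to 0.79 nM in 11 threefold steps. After 48 h at 37°C, CellTiter-Glo One luminescence was read. Viability is a percentage relative to DMSO wells on each plate, with cell-free wells as background.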

[1] = HPLM + 10% dialyzed FBS, 0.000781 µM
[2] = HPLM + 10% dialyzed FBS, 0.00234 µM
[3] = HPLM + 10% dialyzed FBS, 0.00702 µM
[4] = HPLM + 10% dialyzed FBS, 0.0211 µM
[5] = HPLM + 10% dialyzed FBS, 0.0632 µM
[6] = HPLM + 10% dialyzed FBS, 0.19 µM
[7] = HPLM + 10% dialyzed FBS, 0.569 µM
[8] = HPLM + 10% dialyzed FBS, 1.71 µM
[9] = HPLM + 10% dialyzed FBS, 5.12 µM
[10] = HPLM + 10% dialyzed FBS, 15.4 µM
[11] = HPLM + 10% dialyzed FBS, 46.1 µM
[12] = RPMI 5 mM glucose + 10% dialyzed FBS, 0.000781 µM
[13] = RPMI 5 mM glucose + 10% dialyzed FBS, 0.00234 µM
[14] = RPMI 5 mM glucose + 10% dialyzed FBS, 0.00702 µM
[15] = RPMI 5 mM glucose + 10% dialyzed FBS, 0.0211 µM
[16] = RPMI 5 mM glucose + 10% dialyzed FBS, 0.0632 µM
[17] = RPMI 5 mM glucose + 10% dialyzed FBS, 0.19 µM
[18] = RPMI 5 mM glucose + 10% dialyzed FBS, 0.569 µM
[19] = RPMI 5 mM glucose + 10% dialyzed FBS, 1.71 µM
[20] = RPMI 5 mM glucose + 10% dialyzed FBS, 5.12 µM
[21] = RPMI 5 mM glucose + 10% dialyzed FBS, 15.4 µM
[22] = RPMI 5 mM glucose + 10% dialyzed FBS, 46.1 µM
[23] = RPMI 5 mM glucose + 10% FBS, 0.000781 µM
[24] = RPMI 5 mM glucose + 10% FBS, 0.00234 µM
[25] = RPMI 5 mM glucose + 10% FBS, 0.00702 µM
[26] = RPMI 5 mM glucose + 10% FBS, 0.0211 µM
[27] = RPMI 5 mM glucose + 10% FBS, 0.0632 µM
[28] = RPMI 5 mM glucose + 10% FBS, 0.19 µM
[29] = RPMI 5 mM glucose + 10% FBS, 0.569 µM
[30] = RPMI 5 mM glucose + 10% FBS, 1.71 µM
[31] = RPMI 5 mM glucose + 10% FBS, 5.12 µM
[32] = RPMI 5 mM glucose + 10% FBS, 15.4 µM
[33] = RPMI 5 mM glucose + 10% FBS, 46.1 µM

Work on `COc1cc2nccc(Oc3ccc(NC(=O)Nc4cc(C)on4)c(Cl)c3)c2cc1OC` yielded a cell viability [1] of 113%, a cell viability [2] of 117% and a cell viability [3] of 117%. The cell viability [4] was 138%, the cell viability [5] was 108% and the cell viability [6] was 116%. The cell viability [7] was 121%, the cell viability [8] was 130% and the cell viability [9] was 115%. The cell viability [10] was 129%, the cell viability [11] was 87.8% and the cell viability [12] was 124%. The cell viability [13] was 124%, the cell viability [14] was 119% and the cell viability [15] was 114%. For the same molecule, the cell viability [16] was 112%, the cell viability [17] was 115% and the cell viability [18] was 111%. For the same molecule, the cell viability [19] was 136%, the cell viability [20] was 112% and the cell viability [21] was 120%. It also gave a cell viability [22] of 70.9%.

With `CCOC(=O)C/1=C(C)/NC(=S)NC1C2=CC=CC(=C2)O` (stereo not given) the cell viability [23] was 103%, the cell viability [24] was 124% and the cell viability [25] was 117%. For the same molecule, the cell viability [26] was 128%, the cell viability [27] was 123% and the cell viability [28] was 47.3%. It also gave a cell viability [29] of 22.7%, a cell viability [30] of 24.3% and a cell viability [31] of 19.3%. It also gave a cell viability [32] of 22.3%, a cell viability [33] of 17.1% and a cell viability [12] of 117%. It also gave a cell viability [13] of 120%, a cell viability [14] of 133% and a cell viability [15] of 126%. It also gave a cell viability [16] of 132%, a cell viability [17] of 99.5% and a cell viability [18] of 33.2%. It also gave a cell viability [19] of 32.1%, a cell viability [20] of 22.9% and a cell viability [21] of 26.4%. For the same molecule, the cell viability [22] was 23.3%.

Work on `O=C1\C=C(/OC2=C1C=CC=C2C3=CC=CC=C3)N4CCOCC4` yielded a cell viability [1] of 95.4%, a cell viability [2] of 99.2% and a cell viability [3] of 99.9%. The cell viability [4] was 90.4%, the cell viability [5] was 91.9% and the cell viability [6] was 90.4%. It also gave a cell viability [7] of 86.7%, a cell viability [8] of 63.9% and a cell viability [9] of 82.5%. It also gave a cell viability [10] of 66.5%, a cell viability [11] of 75.6% and a cell viability [23] of 82.4%. The cell viability [24] was 88%, the cell viability [25] was 89.1% and the cell viability [26] was 84.7%. For the same molecule, the cell viability [27] was 79.9%, the cell viability [28] was 83% and the cell viability [29] was 81.7%. The cell viability [30] was 77%, the cell viability [31] was 82.4% and the cell viability [32] was 80.9%. For the same molecule, the cell viability [33] was 76%, the cell viability [12] was 75.2% and the cell viability [13] was 86.5%. The cell viability [14] was 81.7%, the cell viability [15] was 83.9% and the cell viability [16] was 87.4%. For the same molecule, the cell viability [17] was 79.7%, the cell viability [18] was 82.3% and the cell viability [19] was 66.1%. The cell viability [20] was 89.8%, the cell viability [21] was 79.1% and the cell viability [22] was 88.1%.

`COc1ccc(/C=C\c2cc(OC)c(OC)c(OC)c2)cc1O` showed a cell viability [1] of 43.4%, a cell viability [2] of 51.5% and a cell viability [3] of 49%. It also gave a cell viability [4] of 49%, a cell viability [5] of 44.6% and a cell viability [6] of 47%. It also gave a cell viability [7] of 41.7%, a cell viability [8] of 36.6% and a cell viability [9] of 36.1%. For the same molecule, the cell viability [10] was 25.3%, the cell viability [11] was 23.2% and the cell viability [23] was 32.1%. The cell viability [24] was 33.7%, the cell viability [25] was 31.2% and the cell viability [26] was 31.2%. It also gave a cell viability [27] of 31.7%, a cell viability [28] of 26.6% and a cell viability [29] of 22.5%. It also gave a cell viability [30] of 22.1%, a cell viability [31] of 23.3% and a cell viability [32] of 19%. It also gave a cell viability [33] of 14.7%, a cell viability [12] of 37.3% and a cell viability [13] of 35.2%. The cell viability [14] was 40.9%, the cell viability [15] was 38.7% and the cell viability [16] was 34.9%. The cell viability [17] was 33.4%, the cell viability [18] was 31.8% and the cell viability [19] was 30.7%. The cell viability [20] was 27.8%, the cell viability [21] was 23.4% and the cell viability [22] was 20%.
